Reference: patent publication US8367873B2, “Phenyl-substituted bicyclooctane-1,3-dione derivatives” (Bayer Cropscience AG, priority 2008, dated 2013)

Key:
Format in all cases: in vivo
Echinocloa crus-galli [1] = assay: Herbicidal pre-emergence action; settings: pre-emergence method, 80 g/ha, greenhouse, visual assessment vs untreated controls
Description: (§1) Seeds of monocotylidonous and dicotylidonous weed and crop plants are placed in sandy loam in wood fibre pots and covered with soil. The test compounds, formulated in the form of wettable powders (WP), are then, as an aqueous suspension with a water application rate of 600 l/ha (converted), with 0.2% of wetting agent added, applied to the surface of the covering soil in different amounts.
(§2) After the treatment, the pots are placed in a greenhouse and kept under good growth conditions for the test plants. The visual assessment of the emergence damage on the test plants is carried out after a trial period of three weeks by comparison with the untreated controls (herbicidal effect in percent: 100% effect=the plants have died, 0% effect=like control plants).

Lolium multiflorum [2] = assay: Herbicidal pre-emergence action; settings: pre-emergence method, 80 g/ha, greenhouse, visual assessment vs untreated controls
Description: as §1, §2

Setaria viridis [3] = assay: Herbicidal pre-emergence action; settings: pre-emergence method, 80 g/ha, greenhouse, visual assessment vs untreated controls
Description: as §1, §2

Alopecurus myosuroides [4] = assay: Herbicidal pre-emergence action; settings: pre-emergence method, 80 g/ha, greenhouse, visual assessment vs untreated controls
Description: as §1, §2

Echinocloa crus-galli [5] = assay: Herbicidal post-emergence action; settings: post-emergence method; for herbicidal effect against ECHCG (Echinochloa crus-galli): 80 g/ha; for pest or weed control at 80 g/ha: Echinochloa crus-galli, 504 h, read-out: herbicidal effect against ECHCG (Echinochloa crus-galli)
Experimental: (§3) Seeds of monocotylidonous and dicotylidonous weed and crop plants are placed in sandy loam in wood fibre pots, covered with soil and cultivated in a greenhouse under good growth conditions. Two to three weeks after sowing, the test plants are treated at the one-leaf stage. The test compounds, formulated as wettable powders (WP), are then with a water application rate of 600 l/ha (converted), with 0.2% of wetting agent added, sprayed onto the green parts of the plants in different amounts. After the test plants have been kept in the greenhouse under optimum growth conditions for about three weeks, the effect of the preparations is assessed visually in comparison to untreated controls (herbicidal effect in percent: 100% effect=the plants have died, 0% effect=like control plants).

Lolium multiflorum [6] = assay: Herbicidal post-emergence action; settings: post-emergence method; for herbicidal effect against LOLMU (Lolium multiflorum): 80 g/ha; for pest or weed control at 80 g/ha: Lolium multiflorum, 504 h, read-out: herbicidal effect against LOLMU (Lolium multiflorum)
Experimental: as §3

Setaria viridis [7] = assay: Herbicidal post-emergence action; settings: post-emergence method; for herbicidal effect against SETVI (Setaria viridis): 80 g/ha; for pest or weed control at 80 g/ha: Setaria viridis, 504 h, read-out: herbicidal effect against SETVI (Setaria viridis)
Experimental: as §3

Alopecurus myosuroides [8] = assay: Herbicidal post-emergence action; settings: post-emergence method; for herbicidal effect against ALOMY (Alopecurus myosuroides): 80 g/ha; for pest or weed control at 80 g/ha: Alopecurus myosuroides, 504 h, read-out: herbicidal effect against ALOMY (Alopecurus myosuroides)
Experimental: as §3

[9] = test system: monocotylidonous and dicotylidonous weed and crop plants; assay: Herbicidal post-emergence action (other test plants); settings: post-emergence method; for herbicidal effect against AVEFA (Avena fatua): 80 g/ha; for pest or weed control at 80 g/ha: 504 h, Avena fatua, read-out: herbicidal effect against AVEFA (Avena fatua)
Experimental: as §3

| Compound | herbicidal effect ECHCG (Echinocloa crus-galli [1]) | herbicidal effect LOLMU (Lolium multiflorum [2]) | herbicidal effect SETVI (Setaria viridis [3]) | herbicidal effect ALOMY (Alopecurus myosuroides [4]) | herbicidal effect against ECHCG (Echinochloa crus-galli) (Echinocloa crus-galli [5]) | herbicidal effect against LOLMU (Lolium multiflorum) (Lolium multiflorum [6]) | herbicidal effect against SETVI (Setaria viridis) (Setaria viridis [7]) | herbicidal effect against ALOMY (Alopecurus myosuroides) (Alopecurus myosuroides [8]) | herbicidal effect against AVEFA (Avena fatua) [9] | pest or weed control at 80 g/ha (Echinocloa crus-galli [5]) | pest or weed control at 80 g/ha (Lolium multiflorum [6]) | pest or weed control at 80 g/ha (Setaria viridis [7]) | pest or weed control at 80 g/ha (Alopecurus myosuroides [8]) | pest or weed control at 80 g/ha [9] |
| --- | --- | --- | --- | --- | --- | --- | --- | --- | --- | --- | --- | --- | --- | --- |
| CCc1cc(C)cc(CC)c1C1=C(O)[C@H]2CC(=NOC(C)C)C[C@H]2C1=O (relative stereo) [I-a-29] | 70% | 80% | 20% | 90% | 100% | 100% | 80% | 100% | 60% | – | – | – | – | – |
| CCc1cc(C)cc(CC)c1C1=C(OC(=O)C(C)(C)C)C2CC3(COC(C)(C)O3)CC2C1=O (stereo not shown) [I-b-5] | 10% | 100% | 60% | 90% | 80% | 100% | 0% | 90% | 20% | – | – | – | – | – |
| CCc1cc(C)cc(CC)c1C1=C(OC(=O)C(C)(C)C)C2CC3(CC2C1=O)OCCS3 (mixture of isomers) [I-b-19] | 100% | 100% | 90% | 100% | 100% | 40% | 80% | 20% | 30% | – | – | – | – | – |
| CCC(C)(C)C(=O)OC1=C(c2c(C)cc(C)cc2C)C(=O)C2CC(=O)CC12 (stereo not shown) [I-b-55] | – | – | – | – | 90% | 0% | 90% | 0% | 0% | – | – | – | – | – |
| Cc1cc(C)c(C2=C(OC(=O)C(C)(C)CCl)C3CC(=O)CC3C2=O)c(C)c1 (stereo not shown) [I-b-52] | – | – | – | – | 100% | 0% | 90% | 0% | 0% | – | – | – | – | – |
| COC(=O)OC1=C(c2c(C)cc(C)cc2C)C(=O)C2CC3(CC12)OCCCCO3 (racemic) [I-c-49] | – | – | – | – | 90% | 100% | 80% | 100% | 80% | – | – | – | – | – |
| COc1cc(C)cc(C)c1C1=C(OC(=O)C(C)C)C2CC3(CC2C1=O)OCC=CCO3 (stereo not shown) [I-b-63] | 100% | 100% | 70% | 70% | 100% | 100% | 100% | 100% | 100% | – | – | – | – | – |
| CCOC(=O)OC1=C(c2c(CC)cc(C)cc2CC)C(=O)C2CC(=O)CC12 (stereo not shown) [I-c-17] | – | – | – | – | – | – | – | – | – | 100% | 40% | 90% | 30% | 0% |
| CCc1cc(C)cc(CC)c1C1=C(O)[C@H]2CC3(C[C@H]2C1=O)SCCCS3 (relative stereo) [I-a-17] | – | – | – | – | 90% | 90% | 80% | 30% | 40% | – | – | – | – | – |
| CCc1cc(C)cc(CC)c1C1=C(OC(=O)COC)C2CC3(CC2C1=O)SCCCS3 (stereo not shown) [I-b-10] | – | – | – | – | 90% | 70% | 70% | 90% | 20% | – | – | – | – | – |
| CCC(=O)OC1=C(c2c(C)cc(C)cc2C)C(=O)C2CC3(COC(C)(C)O3)CC12 (mixture of isomers) [I-b-50] | – | – | – | – | 90% | 100% | 80% | 100% | 0% | – | – | – | – | – |
| C#CCON=C1CC2C(=O)C(c3c(C)cc(C)cc3C)=C(OC(=O)OC)C2C1 (racemic) [I-c-59] | – | – | – | – | 100% | 60% | 20% | 0% | 0% | – | – | – | – | – |
| CCOC(=O)OC1=C(c2c(C)cc(C)cc2C)C(=O)C2CC3(CC12)OCCCO3 (racemic) [I-c-47] | – | – | – | – | 100% | 100% | 60% | 100% | 90% | – | – | – | – | – |
| CCc1cc(C)cc(CC)c1C1=C(O)[C@H]2CC(=O)C[C@H]2C1=O (stereo in doubt) [I-a-4, 2-(2,6-diethyl-4-methylphenyl)-3-hydroxy-3a,4,6,6a-tetrahydropentalene-1,5-dione] | – | – | – | – | – | – | – | – | – | 100% | 20% | 100% | 60% | 30% |
| CCc1cc(C)cc(CC)c1C1=C(O)[C@H]2CC3(C[C@H]2C1=O)SCCCS3 [I-f-1] | – | – | – | – | – | – | – | – | – | 90% | 90% | 80% | 80% | 40% |
| Cc1cc(C)c(C2=C(OC(=O)CC(C)C)C3CC4(COC(C)(C)O4)CC3C2=O)c(C)c1 (mixture of isomers) [I-b-44] | – | – | – | – | 80% | 100% | 60% | 80% | 80% | – | – | – | – | – |
| CCOC(=O)OC1=C(c2c(CC)cc(C)cc2CC)C(=O)C2CC3(CC12)SCCCS3 (stereo not shown) [I-c-16] | – | – | – | – | 90% | 80% | 30% | 0% | 30% | – | – | – | – | – |
| CCc1cc(C)cc(CC)c1C1=C(OC(=O)OC)[C@H]2C[C@@]3(COC(C)(C)O3)C[C@H]2C1=O [I-c-1] | – | – | – | – | – | – | – | – | – | 60% | 100% | 40% | 100% | 60% |
